From patent publication US8933230B2, “Phosphorus-containing group-substituted quinoline, its preparation process, medical composition containing the compounds and application” (priority 2011, dated 2015)

Tests used:
Test in all cases: KinomeScan kinase panel
Type in all cases: binding
DRAK2 = biological target: T1, DRAK2 (Homo sapiens, UniProt O94768)
T1 construct: purchased DiscoveRx Corporation (KinomeScan)
Protocol: (§1) In this example, the compound prepared in Example 10, N1-[4-[[7-[[1-(diethoxyphosphorylmethyl)-4-piperidinyl]methoxyl]-6-methoxyl-4-quinolyl]oxyl]-3-fluorophenyl]-N1′-(4-fluorophenyl)cyclopropane-1,1-dicarboxamide is tested for the inhibitory effect in the 442-kinase panel of KinomeScan™ (www.kinomescan.com) from DiscoveRx Corporation (4215 Sorrento Valley Blvd, San Diego, Calif. 92121) at 1000 nM of the compound concentration, the results are shown in the following Table 5:
(§2) For the detailed information of the screening technique, see Fabian, M. A. et al, Nat., Biotechnol. 2005, 23, 329 and Karaman, M. W. et al, Nat., Biotechnol. 2008, 26, 127. It can be seen from the following representative results that, the compound according to the present invention has significant inhibitory effect on kinases including c-Met, KDR or VEGFR2, RET, PDGFR-β, c-KIT, Flt3, MEK5, DDR1, LOK, CSF1R, EPHA7, EPHA8, EPHB6, MKNK2, BLK, HIPK4, HCK, Flt4 and the mutants thereof

PAK6 = biological target: T2, PAK6 (Homo sapiens, UniProt Q9NQU5)
T2 construct: purchased DiscoveRx Corporation (KinomeScan panel)
Protocol: as §1, §2

PRKCH = biological target: T3, PRKCH (Homo sapiens, UniProt P24723)
T3 construct: purchased DiscoveRx Corporation (KinomeScan)
Protocol: as §1, §2

PIK3CA(C420R) = biological target: T4, PIK3CA(C420R) (Homo sapiens, UniProt P42336, C420R)
T4 construct: purchased DiscoveRx Corporation (KinomeScan)
Protocol: as §1, §2

KIT(V559D, V654A) = biological target: T5, KIT(V559D, V654A) (Homo sapiens, UniProt P10721, V559D/V654A)
T5 construct: purchased DiscoveRx Corporation (KinomeScan)
Protocol: as §1, §2

KIT = biological target: T6, KIT (Homo sapiens, UniProt P10721)
T6 construct: purchased DiscoveRx Corporation (KinomeScan)
Protocol: as §1, §2

CHEK2 = biological target: T7, CHEK2 (Homo sapiens, UniProt O96017)
T7 construct: purchased DiscoveRx Corporation (KinomeScan)
Protocol: as §1, §2

FGR = biological target: T8, FGR (Homo sapiens, UniProt P09769)
T8 construct: purchased DiscoveRx Corporation (KinomeScan)
Protocol: as §1, §2

TRAK = biological target: T9, TRAK (Homo sapiens, UniProt P04629)
T9 construct: purchased DiscoveRx Corporation (KinomeScan)
Protocol: as §1, §2

PRP4 = biological target: T10, PRP4 (Homo sapiens, UniProt Q13523)
T10 construct: purchased DiscoveRx Corporation
Protocol: as §1, §2

SIK = biological target: T11, SIK (Homo sapiens, UniProt P57059)
T11 construct: purchased DiscoveRx Corporation (KinomeScan)
Protocol: as §1, §2

MARK3 = biological target: T12, MARK3 (Homo sapiens, UniProt P27448)
T12 construct: purchased DiscoveRx Corporation (KinomeScan)
Protocol: as §1, §2

BMPR2 = biological target: T13, BMPR2 (Homo sapiens, UniProt Q13873)
T13 construct: purchased DiscoveRx Corporation (KinomeScan)
Protocol: as §1, §2

FES = biological target: T14, FES (Homo sapiens, UniProt P07332)
T14 construct: purchased DiscoveRx Corporation (KinomeScan)
Protocol: as §1, §2

EPHA1 = biological target: T15, EPHA1 (Homo sapiens, UniProt P21709)
T15 construct: purchased DiscoveRx Corporation (KinomeScan)
Protocol: as §1, §2

TAOK1 = biological target: T16, TAOK1 (Homo sapiens, UniProt Q7L7X3)
T16 construct: purchased DiscoveRx Corporation (KinomeScan)
Protocol: as §1, §2

PIK3C2G = biological target: T17, PIK3C2G (Homo sapiens, UniProt O75747)
T17 construct: purchased DiscoveRx Corporation (KinomeScan)
Protocol: as §1, §2

PHKG2 = biological target: T18, PHKG2 (Homo sapiens, UniProt P15735)
T18 construct: purchased DiscoveRx Corporation (KinomeScan)
Protocol: as §1, §2

PLK1 = biological target: T19, PLK1 (Homo sapiens, UniProt P53350)
T19 construct: purchased DiscoveRx Corporation (KinomeScan)
Protocol: as §1, §2

INSRR = biological target: T20, INSRR (Homo sapiens, UniProt P14616)
T20 construct: purchased DiscoveRx Corporation (KinomeScan)
Protocol: as §1, §2

EGFR(G719C) = biological target: T21, EGFR(G719C) (Homo sapiens, UniProt P00533, G719C)
T21 construct: purchased DiscoveRx Corporation (KinomeScan)
Protocol: as §1, §2

SIK2 = biological target: T22, SIK2 (Homo sapiens, UniProt Q9H0K1)
T22 construct: purchased DiscoveRx Corporation (KinomeScan)
Protocol: as §1, §2

MAP3K15 = biological target: T23, MAP3K15 (Homo sapiens, UniProt Q6ZN16)
T23 construct: purchased DiscoveRx Corporation (KinomeScan)
Protocol: as §1, §2

ACVR2A = biological target: T24, ACVR2A (Homo sapiens, UniProt P27037)
T24 construct: purchased DiscoveRx Corporation (KinomeScan)
Protocol: as §1, §2

EGFR(L747-T751del,Sins) = biological target: T25, EGFR(L747-T751del,Sins) (Homo sapiens, UniProt P00533, DEL747-750/T751S)
T25 construct: purchased DiscoveRx Corporation (KinomeScan)
Protocol: as §1, §2

ZAK = biological target: T26, ZAK (Homo sapiens, UniProt Q9NYL2)
T26 construct: purchased DiscoveRx Corporation (KinomeScan service)
Protocol: as §1, §2

MET(M1250T) = biological target: T27, MET(M1250T) (Homo sapiens, UniProt P08581, M1250T)
T27 construct: purchased DiscoveRx Corporation (KinomeScan)
Protocol: as §1, §2

PAK2 = biological target: T28, PAK2 (Homo sapiens, UniProt Q13177)
T28 construct: purchased DiscoveRx Corporation (KinomeScan panel)
Protocol: as §1, §2

FAK = biological target: T29, FAK (Homo sapiens, UniProt Q05397)
T29 construct: purchased DiscoveRx Corporation (KinomeScan)
Protocol: as §1, §2

CSNK1G3 = biological target: T30, CSNK1G3 (Homo sapiens, UniProt Q9Y6M4)
T30 construct: purchased DiscoveRx Corporation (KinomeScan)
Protocol: as §1, §2

AXL = biological target: T31, AXL (Homo sapiens, UniProt P30530)
T31 construct: purchased DiscoveRx Corporation (KinomeScan)
Protocol: as §1, §2

CAMK2B = biological target: T32, CAMK2B (Homo sapiens, UniProt Q13554)
T32 construct: purchased DiscoveRx Corporation (KinomeScan)
Protocol: as §1, §2

CSK = biological target: T33, CSK (Homo sapiens, UniProt P41240)
T33 construct: purchased DiscoveRx Corporation (KinomeScan)
Protocol: as §1, §2

MAP3K2 = biological target: T34, MAP3K2 (Homo sapiens, UniProt Q9Y2U5)
T34 construct: purchased DiscoveRx Corporation (KinomeScan)
Protocol: as §1, §2

DAPK1 = biological target: T35, DAPK1 (Homo sapiens, UniProt P53355)
T35 construct: purchased DiscoveRx Corporation (KinomeScan)
Protocol: as §1, §2

LATS2 = biological target: T36, LATS2 (Homo sapiens, UniProt Q9NRM7)
T36 construct: purchased DiscoveRx Corporation (KinomeScan)
Protocol: as §1, §2

T16 sequence (Q7L7X3 whole entry): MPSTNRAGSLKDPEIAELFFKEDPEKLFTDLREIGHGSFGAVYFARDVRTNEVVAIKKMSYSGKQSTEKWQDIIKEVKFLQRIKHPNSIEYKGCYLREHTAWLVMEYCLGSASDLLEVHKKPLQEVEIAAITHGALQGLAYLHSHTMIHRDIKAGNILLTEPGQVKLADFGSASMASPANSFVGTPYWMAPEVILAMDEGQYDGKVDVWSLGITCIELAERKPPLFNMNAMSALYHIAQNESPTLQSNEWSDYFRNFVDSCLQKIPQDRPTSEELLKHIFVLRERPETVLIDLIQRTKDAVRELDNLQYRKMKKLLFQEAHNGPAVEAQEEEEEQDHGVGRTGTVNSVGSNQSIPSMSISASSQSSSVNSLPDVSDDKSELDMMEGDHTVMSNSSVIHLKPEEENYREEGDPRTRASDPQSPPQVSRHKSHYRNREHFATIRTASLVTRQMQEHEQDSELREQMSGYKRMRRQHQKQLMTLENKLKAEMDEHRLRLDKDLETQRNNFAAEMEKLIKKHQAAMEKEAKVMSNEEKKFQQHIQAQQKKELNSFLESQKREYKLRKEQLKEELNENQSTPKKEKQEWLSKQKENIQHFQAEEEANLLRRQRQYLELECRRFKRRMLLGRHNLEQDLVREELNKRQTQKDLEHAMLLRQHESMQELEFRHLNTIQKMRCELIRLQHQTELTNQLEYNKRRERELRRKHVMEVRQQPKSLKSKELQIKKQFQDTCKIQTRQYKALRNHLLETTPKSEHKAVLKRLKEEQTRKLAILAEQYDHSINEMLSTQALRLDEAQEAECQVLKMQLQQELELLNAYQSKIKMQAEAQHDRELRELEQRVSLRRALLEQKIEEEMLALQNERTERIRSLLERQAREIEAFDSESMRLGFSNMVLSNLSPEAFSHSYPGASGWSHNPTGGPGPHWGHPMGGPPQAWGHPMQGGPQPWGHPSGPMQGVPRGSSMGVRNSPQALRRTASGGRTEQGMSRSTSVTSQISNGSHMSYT
T33 sequence (P41240 whole entry): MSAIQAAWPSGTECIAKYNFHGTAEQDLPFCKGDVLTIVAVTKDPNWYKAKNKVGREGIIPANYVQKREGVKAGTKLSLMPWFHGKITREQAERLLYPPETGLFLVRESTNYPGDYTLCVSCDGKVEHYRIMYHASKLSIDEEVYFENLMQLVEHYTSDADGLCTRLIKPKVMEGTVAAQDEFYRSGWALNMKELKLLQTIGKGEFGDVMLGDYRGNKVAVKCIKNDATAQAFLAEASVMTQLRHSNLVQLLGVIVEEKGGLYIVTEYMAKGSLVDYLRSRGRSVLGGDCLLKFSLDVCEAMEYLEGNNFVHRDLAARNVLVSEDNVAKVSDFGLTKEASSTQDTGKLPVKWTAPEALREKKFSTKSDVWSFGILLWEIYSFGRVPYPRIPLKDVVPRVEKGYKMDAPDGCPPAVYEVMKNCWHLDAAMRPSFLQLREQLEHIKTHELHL
T19 sequence (P53350 whole entry): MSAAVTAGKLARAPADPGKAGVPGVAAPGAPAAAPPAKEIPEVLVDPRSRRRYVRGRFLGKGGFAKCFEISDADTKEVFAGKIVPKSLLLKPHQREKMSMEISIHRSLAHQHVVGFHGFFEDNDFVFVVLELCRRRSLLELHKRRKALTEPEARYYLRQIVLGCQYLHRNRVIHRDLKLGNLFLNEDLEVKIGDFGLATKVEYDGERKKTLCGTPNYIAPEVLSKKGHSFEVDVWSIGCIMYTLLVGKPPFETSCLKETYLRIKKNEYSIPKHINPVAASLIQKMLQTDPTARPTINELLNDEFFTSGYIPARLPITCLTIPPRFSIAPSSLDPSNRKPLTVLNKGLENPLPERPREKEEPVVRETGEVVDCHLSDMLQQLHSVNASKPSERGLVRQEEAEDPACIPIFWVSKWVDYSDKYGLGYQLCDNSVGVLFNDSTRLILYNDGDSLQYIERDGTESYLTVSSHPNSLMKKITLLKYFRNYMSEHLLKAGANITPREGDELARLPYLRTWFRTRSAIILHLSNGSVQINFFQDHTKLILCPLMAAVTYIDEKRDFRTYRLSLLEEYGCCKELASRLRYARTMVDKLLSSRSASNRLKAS
T2 sequence (Q9NQU5 whole entry): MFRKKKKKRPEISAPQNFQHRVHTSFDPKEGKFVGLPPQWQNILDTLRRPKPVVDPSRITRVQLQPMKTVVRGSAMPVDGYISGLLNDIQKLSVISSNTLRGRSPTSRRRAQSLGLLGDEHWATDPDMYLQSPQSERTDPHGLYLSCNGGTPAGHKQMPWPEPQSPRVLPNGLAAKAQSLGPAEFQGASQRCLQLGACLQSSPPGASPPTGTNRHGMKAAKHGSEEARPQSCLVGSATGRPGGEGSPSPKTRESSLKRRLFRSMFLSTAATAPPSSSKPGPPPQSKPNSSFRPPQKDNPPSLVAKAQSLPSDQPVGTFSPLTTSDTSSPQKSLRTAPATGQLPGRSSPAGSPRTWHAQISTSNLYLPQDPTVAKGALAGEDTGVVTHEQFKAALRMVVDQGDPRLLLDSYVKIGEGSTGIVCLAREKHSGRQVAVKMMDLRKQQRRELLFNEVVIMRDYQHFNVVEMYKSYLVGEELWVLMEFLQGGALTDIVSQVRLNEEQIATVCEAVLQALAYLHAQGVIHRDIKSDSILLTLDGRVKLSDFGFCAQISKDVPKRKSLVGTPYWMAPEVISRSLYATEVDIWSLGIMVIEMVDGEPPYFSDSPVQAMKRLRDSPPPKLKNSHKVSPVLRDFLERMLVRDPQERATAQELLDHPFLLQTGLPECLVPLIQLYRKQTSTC
T31 sequence (P30530 26-894): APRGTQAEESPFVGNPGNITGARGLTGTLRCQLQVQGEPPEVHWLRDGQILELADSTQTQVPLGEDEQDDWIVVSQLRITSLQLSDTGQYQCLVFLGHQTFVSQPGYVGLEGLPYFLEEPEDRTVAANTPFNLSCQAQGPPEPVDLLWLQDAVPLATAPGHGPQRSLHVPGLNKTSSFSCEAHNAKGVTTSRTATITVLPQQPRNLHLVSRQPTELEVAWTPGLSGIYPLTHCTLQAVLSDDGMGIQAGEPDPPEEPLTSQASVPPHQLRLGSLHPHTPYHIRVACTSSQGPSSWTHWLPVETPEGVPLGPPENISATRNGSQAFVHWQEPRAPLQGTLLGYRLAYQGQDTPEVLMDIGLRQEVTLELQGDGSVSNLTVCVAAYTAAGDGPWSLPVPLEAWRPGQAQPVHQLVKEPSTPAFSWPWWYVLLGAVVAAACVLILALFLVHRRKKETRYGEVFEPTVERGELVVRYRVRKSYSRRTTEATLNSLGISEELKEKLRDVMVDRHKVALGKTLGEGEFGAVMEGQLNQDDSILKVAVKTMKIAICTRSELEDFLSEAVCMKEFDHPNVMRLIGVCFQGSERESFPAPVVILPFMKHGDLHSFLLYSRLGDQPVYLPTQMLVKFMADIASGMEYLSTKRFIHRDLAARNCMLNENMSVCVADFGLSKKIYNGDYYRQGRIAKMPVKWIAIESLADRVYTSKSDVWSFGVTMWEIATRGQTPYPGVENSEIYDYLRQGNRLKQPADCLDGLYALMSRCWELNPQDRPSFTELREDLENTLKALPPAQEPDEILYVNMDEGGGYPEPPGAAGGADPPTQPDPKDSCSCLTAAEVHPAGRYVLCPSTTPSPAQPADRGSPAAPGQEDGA
T3 sequence (P24723 whole entry): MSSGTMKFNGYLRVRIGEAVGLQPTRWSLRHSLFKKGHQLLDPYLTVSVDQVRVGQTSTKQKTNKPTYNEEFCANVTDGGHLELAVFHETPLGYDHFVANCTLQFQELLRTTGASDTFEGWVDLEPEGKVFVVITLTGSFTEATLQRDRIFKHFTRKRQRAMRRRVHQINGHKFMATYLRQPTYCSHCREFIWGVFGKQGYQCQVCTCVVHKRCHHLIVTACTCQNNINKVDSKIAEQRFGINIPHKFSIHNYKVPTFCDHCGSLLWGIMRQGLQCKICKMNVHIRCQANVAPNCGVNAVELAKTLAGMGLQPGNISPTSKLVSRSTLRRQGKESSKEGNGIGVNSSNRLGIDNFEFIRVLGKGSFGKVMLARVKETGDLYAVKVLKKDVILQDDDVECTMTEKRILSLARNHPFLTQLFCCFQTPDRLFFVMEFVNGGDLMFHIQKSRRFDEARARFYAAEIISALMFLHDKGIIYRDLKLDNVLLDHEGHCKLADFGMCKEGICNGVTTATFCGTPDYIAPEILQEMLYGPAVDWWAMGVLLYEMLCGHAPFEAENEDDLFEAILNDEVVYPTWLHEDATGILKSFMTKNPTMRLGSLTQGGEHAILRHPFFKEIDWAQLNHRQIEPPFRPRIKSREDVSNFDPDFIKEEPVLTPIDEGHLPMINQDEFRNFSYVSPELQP
T28 sequence (Q13177 whole entry): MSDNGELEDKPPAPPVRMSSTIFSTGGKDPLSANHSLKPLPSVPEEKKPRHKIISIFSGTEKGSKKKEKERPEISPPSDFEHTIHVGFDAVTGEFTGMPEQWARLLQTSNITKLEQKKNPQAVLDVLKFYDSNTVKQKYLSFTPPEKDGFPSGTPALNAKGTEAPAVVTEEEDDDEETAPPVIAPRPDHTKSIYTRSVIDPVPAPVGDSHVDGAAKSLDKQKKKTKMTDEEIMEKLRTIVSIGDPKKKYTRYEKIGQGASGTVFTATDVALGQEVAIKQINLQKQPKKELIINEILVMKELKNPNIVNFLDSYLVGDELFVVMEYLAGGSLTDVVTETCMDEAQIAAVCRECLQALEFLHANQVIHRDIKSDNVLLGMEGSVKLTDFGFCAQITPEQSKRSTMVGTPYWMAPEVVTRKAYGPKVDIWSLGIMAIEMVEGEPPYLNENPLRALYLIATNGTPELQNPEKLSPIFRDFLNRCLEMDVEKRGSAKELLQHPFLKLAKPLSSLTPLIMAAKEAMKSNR

CCOP(=O)(CN1CCC(COc2cc3nccc(Oc4ccc(NC(=O)C5(C(=O)Nc6ccc(F)cc6)CC5)cc4F)c3cc2OC)CC1)OCC [Example 10, N1-[4-[[7-[[1-(diethoxyphosphorylmethyl)-4-piperidinyl]methoxyl]-6-methoxyl-4-quinolyl]oxyl]-3-fluorophenyl]-N1′-(4-fluorophenyl)cyclopropane-1,1-dicarboxamide]
% Ctrl@1000 nM (DRAK2): 100 % Ctrl | % Ctrl@1000 nM (PAK6): 87 % Ctrl | % Ctrl@1000 nM (PRKCH): 100 % Ctrl | % Ctrl@1000 nM (PIK3CA(C420R)): 100 % Ctrl | % Ctrl@1000 nM (KIT(V559D, V654A)): 4.1 % Ctrl | % Ctrl@1000 nM (KIT): 0.2 % Ctrl | % Ctrl@1000 nM (CHEK2): 35 % Ctrl | % Ctrl@1000 nM (FGR): 35 % Ctrl | % Ctrl@1000 nM (TRAK): 1.8 % Ctrl | % Ctrl@1000 nM (PRP4): 76 % Ctrl | % Ctrl@1000 nM (SIK): 60 % Ctrl | % Ctrl@1000 nM (MARK3): 100 % Ctrl | % Ctrl@1000 nM (BMPR2): 100 % Ctrl | % Ctrl@1000 nM (FES): 44 % Ctrl | % Ctrl@1000 nM (EPHA1): 4.6 % Ctrl | % Ctrl@1000 nM (TAOK1): 100 % Ctrl | % Ctrl@1000 nM (PIK3C2G): 98 % Ctrl | % Ctrl@1000 nM (PHKG2): 96 % Ctrl | % Ctrl@1000 nM (PLK1): 100 % Ctrl | % Ctrl@1000 nM (INSRR): 65 % Ctrl | % Ctrl@1000 nM (EGFR(G719C)): 75 % Ctrl | % Ctrl@1000 nM (SIK2): 100 % Ctrl | % Ctrl@1000 nM (MAP3K15): 100 % Ctrl | % Ctrl@1000 nM (ACVR2A): 100 % Ctrl | % Ctrl@1000 nM (EGFR(L747-T751del,Sins)): 72 % Ctrl | % Ctrl@1000 nM (ZAK): 36 % Ctrl | % Ctrl@1000 nM (MET(M1250T)): 3 % Ctrl | % Ctrl@1000 nM (PAK2): 54 % Ctrl | % Ctrl@1000 nM (FAK): 51 % Ctrl | % Ctrl@1000 nM (CSNK1G3): 100 % Ctrl | % Ctrl@1000 nM (AXL): 8 % Ctrl | % Ctrl@1000 nM (CAMK2B): 100 % Ctrl | % Ctrl@1000 nM (CSK): 14 % Ctrl | % Ctrl@1000 nM (MAP3K2): 100 % Ctrl | % Ctrl@1000 nM (DAPK1): 100 % Ctrl | % Ctrl@1000 nM (LATS2): 96 % Ctrl
